Residues, ends and D or L forms follow the SMILES beside them.

The subject of one assay is MMP9. The experiment in a line: MMP9 expression in high glucose-treated hRMECs (Western blot). The assay is classed as cell-based, human. The conditions noted are these: 30 mM glucose 72 hours, 50 or 100 μM apoEdp. The text has this:
(§1) Cell Culture. Primary cultures of human retina microvascular endothelial cells (hRMECs) were purchased from the Applied Cell Biology Research Institute and grown on attachment factor-coated plates in cell systems complete (CSC) medium (Cell Systems, Kirkland, Wash.) supplemented with 20% fetal bovine serum, culture boost (animal derived growth factors) and bac-off (antibiotics). The primary hRMECs were used in their passages 4 to 6. The 18-a.a. apoE mimetic peptide apoEdp (SEQ ID NO:3, Ac-LRKLRKRLLLRKLRKRLL-amide), derived from the human apolipoprotein E receptor-binding region (see SED ID NO:1) between residues 141 and 149, was synthesized (Genemed, Arlington, Tex.) with a purity of greater than 95%. The apoEdp peptide was dissolved in phosphate-buffered saline (“PBS”) at a concentration appropriate for further experimental use. […]
(§2) Western Blotting. […] The total protein concentration was determined using a BCA protein assay kit (Pierce, Rockford, Ill.). […] To ensure the equal loading of protein in each lane, each membrane was stripped and re-probed with an antibody against β-actin, and the chemiluminescence was detected as described previously. After scanning the blots with a flatbed scanner, band intensities were analyzed using ImageJ (NIH) and the relative intensity values were normalized to control values. […]
(In general: In western blotting, separated proteins are transferred to a membrane and probed.)

For assay [1], the system named is occludin. The experiment in a line: Occludin expression in high glucose-treated hRMECs (Western blot). It is filed as cell-based, human.
Source text: as §1, §2

Assay [2] has as its system occludin. Briefly: Streptozotocin-induced diabetic mice, retinal occludin protein by Western blot. The conditions noted are these: 14 days. It is filed as in vivo, mouse. On the procedure:
Western Blotting. The hRMECs were harvested in M-PER Mammalian Protein Extraction Reagent (Thermo Fisher Scientific, Inc., Rockford, Ill.) containing protease inhibitor cocktail. The total protein concentration was determined using a BCA protein assay kit (Pierce, Rockford, Ill.). Equal amounts of protein were separated by electrophoresis on 5-20% SDS-polyacrylamide gels and transferred electrophoretically onto nitrocellulose membranes (Amersham, Little Chalfont, UK). […] To ensure the equal loading of protein in each lane, each membrane was stripped and re-probed with an antibody against β-actin, and the chemiluminescence was detected as described previously. After scanning the blots with a flatbed scanner, band intensities were analyzed using ImageJ (NIH) and the relative intensity values were normalized to control values. […]
To investigate the effects on the retinal tight junction protein occludin following topical eye drop (1% apoEdp) or systemic i/p injection (40 mg/kg) of apoEdp, retinas from enucleated mouse eyes were processed to harvest total RNA, and then one-step real-time RT-PCR was performed using mice occludin-specific mRNA expression. […] To correlate the occludin-specific mRNA data at a protein level, total proteins extracted from retinas of different experimental groups (FIG. 10) were analyzed using Western-blot to detect occludin-specific protein expression.

The next assay has as its system VEGF. Briefly: Streptozotocin-induced diabetic mice, retinal VEGF protein by Western blot. The assay is classed as in vivo, mouse. Conditions: 14 days. On the procedure:
(§3) Streptozotocin (STZ) induced diabetes. Twelve week old C57Bl/6 mice were used for this study. Mice were induced to have diabetes by intraperitoneal injection of 170 μg/g of streptozotocin (Sigma Aldrich, St. Louis, Mo.). Controls were injected with a vehicle (0.01M sodium citrate buffer). On the third day after STZ treatment, mice tail veins were bled to test the hyperglycemic status using blood sugar detection kit (Lifescan; Johnson & Johnson, Milpitas, Calif.). Mice with blood sugar levels of >300 mg/dL on the third day after STZ treatment were considered diabetic. Eye drop treatment containing 1% apoEdp or vehicle PBS was continued 4 times a day for 14 consecutive days. Intra-peritoneal (i/p) injection containing 40 mg/kg of apoEdp or vehicle control PBS was administered once daily for 14 consecutive days. On the 15th day post-treatment, mice were euthanized, their eyes enucleated, and the retinas dissected out to use for mRNA or Western blot analysis.
Upregulation of VEGF expression is reported as one of the reasons for the loss of tight junction proteins in diabetic mice (20).
Increased vascular permeability in diabetic retinopathy (DR) is reported to result in a concomitant increase of VEGF. The VEGF pathway is known to play a role in breakdown of the BRB through a mechanism involving the down regulation of tight junction proteins in the retinal microvasculature (20).

For another assay, the system named is LRP-1. The experiment in a line: Streptozotocin-induced diabetic mice, retinal LRP-1 protein. It is filed as in vivo, mouse. On the procedure: as §3

Regarding `CC(=O)N[C@@H](CC(C)C)C(=O)N[C@@H](CCCNC(=N)N)C(=O)N[C@@H](CCCCN)C(=O)N[C@@H](CC(C)C)C(=O)N[C@@H](CCCNC(=N)N)C(=O)N[C@@H](CCCCN)C(=O)N[C@@H](CCCNC(=N)N)C(=O)N[C@@H](CC(C)C)C(=O)N[C@@H](CC(C)C)C(=O)N[C@@H](CC(C)C)C(=O)N[C@@H](CCCNC(=N)N)C(=O)N[C@@H](CCCCN)C(=O)N[C@@H](CC(C)C)C(=O)N[C@@H](CCCNC(=N)N)C(=O)N[C@@H](CCCCN)C(=O)N[C@@H](CCCNC(=N)N)C(=O)N[C@@H](CC(C)C)C(=O)N[C@@H](CC(C)C)C(N)=O` [apoEdp, Ac-LRKLRKRLLLRKLRKRLL-amide] (Ac-LRKLRKRLLLRKLRKRLL-NH2), the “High glucose-induced expression of MMP9” value in the assay with MMP9 was “suppressed the expression”. The “Occludin expression versus 30 mM glucose alone” value in the assay on occludin [1] (hRMECs co-incubated with 100 μM apoEdp and 30 mM glucose) was “greater levels of occludin”. Further, in the assay with occludin [1] (hRMECs, 30 mM glucose 72 hours, 50 or 100 μM apoEdp), the “High glucose-induced loss of tight junction protein occludin” value is reported as “reduced”. For the same compound, the “Loss of occludin protein in retina” value in the assay on occludin [2] (1% apoEdp eye drop 4 times a day) and in the assay with occludin [2] (i/p injection 40 mg/kg daily) was “significantly attenuated the loss” throughout. In addition, the “VEGF expression of retina” value was “not significantly different from untreated diabetic mice” in the assay with VEGF (eye drop treatment, vs untreated diabetic) and “significantly reduced VEGF expression” in the assay on VEGF (i/p injection of apoEdp, vs diabetic untreated). Moreover, the “Retinal LRP-1 protein levels” value in the assay on LRP-1 (1% apoEdp via eye drops) and in the assay on LRP-1 (1% apoEdp via intraperitoneal (i/p) injection) was “significant reduction” each time.

These data come from US9636299B2, “Method for treating diabetic retinopathy” (XAVIER UNIVERSITY OF LOUISIANA, priority 2012, dated 2017).
